Literature values in US20100210653A1, “Novel Compounds, Their Preparations and Use” (HIGH POINT PHARMACEUTICALS, LLC, priority 2004, published 2010).

Legend:
[1] = system: high fat diet induced insulin resistant mice and diabetic ob/ob; conditions: PNAS 2003, 100, 15924-15929
[2] = system: C2C12 muscle cells; conditions: in vitro treatment, two publications

## Cc1cc(SCc2sc(-c3ccc(C(F)(F)F)cc3)nc2C)ccc1OCC(=O)O [GW501516]
[1]
  insulin sensitivity: improved insulin sensitivity
  plasma glucose and insulin: lowering of plasma glucose and insulin
[2]
  regulation of genes (LPL, ACS4, CTP1, PDK4, UCP1, -2, -3, ABCA1/G1): regulation of genes involved with TG hydrolysis and FFA oxidation
